Source: patent US20260092179A1, “GENETICALLY MODIFIED HOST CELLS PRODUCING VIOLACEIN, ANALOGUES, AND DERIVATIVES THEREOF” (OCTARINE BIO APS, priority 2022, published 2026)

What was measured:
[1] = Temperature stability of dyed fabrics (colour fastness, ΔE); type: physicochemical; settings: oven 80° c. for 4 h; for ΔE: before and after the stability test
Procedure: (§1) In order to assess the stability and colour fastness of violacein and violacein derivatives dyed onto fabrics, dyed fabrics were subjected to a number of conditions. Fabrics were dyed according to Example 18 and colour coordinates and colour change before and after exposure to a given condition were determined as described in Example 18. To measure temperature stability, fabrics were incubated in an oven set to 80° c. for 4 h. To measure stability under acid and alkaline conditions, fabrics were fully submerged in water solutions set to pH 8 with NaOH and pH 5 with HCl and incubated at room temperature for 30 minutes. Fabrics were then incubated at 37° c. for 4 h. To measure stability during laundering, fabrics were washed at 30° c. under the “mix” setting of a Siemens IQ300 washing machine, then dried in a Siemens IQ300 dryer until dry. To measure artificial light stability, fabrics were placed under an LED lamp at room temperature for 16 h. To measure UV light stability, fabrics were placed under a UV lamp at room temperature for 1 h.

E. coli DH5a = assay: Antimicrobial activity of dyed Nylon 6,6 fabric: final OD600 and % inhibition; type: cell-based
Procedure: (§2) Violacein is reported as being a potent antibiotic, capable of inhibiting the growth of a wide range of microbial kingdoms including bacteria, yeast, fungi, viruses, protozoa and nematode. […] To test this, overnight cultures of wild-type E. coli DH5a and S. cerevisiae S228c strains were diluted in 5 mL of cultivation media (LB for E. coli, minimal media for S. cerevisiae) to a starting OD600 of 0.1. 1.5×1.5 cm dyed Nylon 6,6 fabric strips were sterilized by submerging in 75% ethanol for 15 mins and air drying in a laminar air flow hood before adding to each culture (with undyed Nylon 6,6 fabric as a negative control). […] This experiment provides evidence that all violacein derivatives display antimicrobial properties.

S. cerevisiae S228c = assay: as above; type: cell-based
Procedure: as §2

[2] = UV absorption capability (absorbance maxima, UV-A, UV-B, UV-C absorption) by HPLC; type: physicochemical
Procedure: The software Agilent Openlab CDS Chemstation Rev.
Violacein is reported as being a potent UV absorbent able to effectively absorb UV radiation, however, much less is known about the other violacein derivatives. To investigate the potential of using violacein and violacein derivatives as UV inhibitors and to potentially impart UV protection to fabrics, the UV absorption spectra of each compound was analyzed by HPLC and the total absorption capability at each of the most relevant UV wavelengths quantified.
For the quantification of UV absorption capacity of the compound of interest, a chromatographic separation on the F5 column and a gradient of water/acetonitrile containing 0.05% formic acid was run according to Example 5). […] The compounds were quantified based on the signal at 230 nm, using calibration curves of authentic analytical standards.
The UV absorption capacity is represented in mAU.min/mM. UV-A, UV-B and UV-C represent the most relevant regions where UV protection is required. UV-C is the most harmful type of UV radiation and can be generated by inorganic sources. UV-B radiation predominantly comes from the suns rays and is responsible for sun burn. UV-A radiation is also derived predominantly from the suns rays, and while UV-A radiation is less harmful than UV-B or UV-C but is much more prevalent.

[3] = Artificial light stability of dyed fabrics (colour fastness, ΔE); type: physicochemical; settings: for ΔE: before vs after LED lamp, room temperature, 16 h
Procedure: as §1

[4] = Acrylic, after test (LED lamp, room temperature, 16 h)
[5] = Bleached cotton, after test (LED lamp, room temperature, 16 h)
[6] = Diacetate, after test (LED lamp, room temperature, 16 h)
[7] = Nylon 6,6, after test (LED lamp, room temperature, 16 h)
[8] = Polyester, after test (LED lamp, room temperature, 16 h)
[9] = Wool, after test (LED lamp, room temperature, 16 h)

O=C1NC(c2c[nH]c3ccccc23)=C/C1=C1\C(=O)Nc2ccccc21 [deoxyviolacein]
L ([1]; Acrylic, After test): 59.66 | a ([1]; Acrylic, After test): 0.86 | b ([1]; Acrylic, After test): −2.82 | L ([1]; Acrylic, Before test): 59.1 | a ([1]; Acrylic, Before test): 1.55 | b ([1]; Acrylic, Before test): −1.29 | ΔE ([1]; Acrylic): 1.77 | L ([1]; Bleached cotton, After test): 63.74 | a ([1]; Bleached cotton, After test): 2.09 | b ([1]; Bleached cotton, After test): −8.13 | L ([1]; Bleached cotton, Before test): 63.16 | a ([1]; Bleached cotton, Before test): 1.56 | b ([1]; Bleached cotton, Before test): −7.66 | ΔE ([1]; Bleached cotton): 0.92 | L ([1]; Diacetate, After test): 51.96 | a ([1]; Diacetate, After test): 10.78 | b ([1]; Diacetate, After test): −13.7 | L ([1]; Diacetate, Before test): 51.65 | a ([1]; Diacetate, Before test): 10.65 | b ([1]; Diacetate, Before test): −14.56 | ΔE ([1]; Diacetate): 0.92 | L ([1]; Nylon 6,6, After test): 45.2 | a ([1]; Nylon 6,6, After test): 6.79 | b ([1]; Nylon 6,6, After test): −21.25 | L ([1]; Nylon 6,6, Before test): 44.99 | a ([1]; Nylon 6,6, Before test): 6.18 | b ([1]; Nylon 6,6, Before test): −21.43 | ΔE ([1]; Nylon 6,6): 0.67 | L ([1]; Polyester, After test): 65.03 | a ([1]; Polyester, After test): 2.08 | b ([1]; Polyester, After test): −2.03 | L ([1]; Polyester, Before test): 64.62 | a ([1]; Polyester, Before test): 1.61 | b ([1]; Polyester, Before test): −2.79 | ΔE ([1]; Polyester): 0.98 | L ([1]; Wool, After test): 66.12 | a ([1]; Wool, After test): 1.93 | b ([1]; Wool, After test): −0.48 | L ([1]; Wool, Before test): 66.67 | a ([1]; Wool, Before test): −0.09 | b ([1]; Wool, Before test): −0.62 | ΔE ([1]; Wool): 2.10 | Final OD600 (E. coli DH5a; E. coli cultured overnight at 30° c. with dyed Nylon 6,6 fabric strip, starting OD600 0.1): 4.62 | % Inhibition (E. coli DH5a; E. coli, dyed Nylon 6,6 fabric vs undyed fabric control): 11.45% | Final OD600 (S. cerevisiae S228c; S. cerevisiae cultured overnight at 30° c. with dyed Nylon 6,6 fabric strip, starting OD600 0.1): 4.99 | % Inhibition (S. cerevisiae S228c; S. cerevisiae, dyed Nylon 6,6 fabric vs undyed fabric control): 6.90% | UV absorption capability in the UV-C region ([2]; 245 nm): particularly high | Total UV absorption UV C (245 nm) ([2]; AUC of HPLC peak at 245 nm per mM): 9251.6 (mAU · min)/mM | Total UV absorption UV B (305 nm) ([2]; AUC of HPLC peak at 305 nm per mM): 0 (mAU · min)/mM | Total UV absorption UV A (360 nm) ([2]; AUC of HPLC peak at 360 nm per mM): 702.8 (mAU · min)/mM | L [3, 4]: 64.84 | a [3, 4]: 0.76 | b [3, 4]: 2.12 | L ([3]; Acrylic, before test): 60.52 | a ([3]; Acrylic, before test): 1.59 | b ([3]; Acrylic, before test): −2.77 | ΔE ([3]; Acrylic): 6.58 | L [3, 5]: 62.47 | a [3, 5]: 2 | b [3, 5]: −6.81 | L ([3]; Bleached cotton, before test): 60.49 | a ([3]; Bleached cotton, before test): 0.97 | b ([3]; Bleached cotton, before test): −7.49 | ΔE ([3]; Bleached cotton): 2.33 | L [3, 6]: 49.82 | a [3, 6]: 9.13 | b [3, 6]: −9.9 | L ([3]; Diacetate, before test): 47.05 | a ([3]; Diacetate, before test): 13.99 | b ([3]; Diacetate, before test): −17.37 | ΔE ([3]; Diacetate): 9.33 | L [3, 7]: 46.23 | a [3, 7]: 5.57 | b [3, 7]: −18.4 | L ([3]; Nylon 6,6, before test): 43.65 | a ([3]; Nylon 6,6, before test): 5.57 | b ([3]; Nylon 6,6, before test): −20.95 | ΔE ([3]; Nylon 6,6): 3.63 | L [3, 8]: 70.32 | a [3, 8]: 0.28 | b [3, 8]: 2.09 | L ([3]; Polyester, before test): 64.39 | a ([3]; Polyester, before test): 1.76 | b ([3]; Polyester, before test): −4.83 | ΔE ([3]; Polyester): 9.23 | L [3, 9]: 69.63 | a [3, 9]: 0.44 | b [3, 9]: 3.2 | L ([3]; Wool, before test): 64.28 | a ([3]; Wool, before test): −0.4 | b ([3]; Wool, before test): −0.37 | ΔE ([3]; Wool): 6.49
